Drawing on patent US12043632B2, “6-heteroaryloxy benzimidazoles and azabenzimidazoles as JAK2 inhibitors” (Ajax Therapeutics, Inc., priority 2020, dated 2024), this text covers Kd for 35 compounds.

In the test the target is T1, JAK2 (JH1domain-catalytic, Y1007F,Y1008F) kinase (Homo sapiens, UniProt O60674, Y1007F/Y1008F).
T1 construct: JAK2 (JH1domain-catalytic, Y1007F,Y1008F) kinase was expressed as N-terminal fusion; made in house; host or cells: transiently transfected HEK293 cells
T1 sequence (O60674 849-1124 Y1007F/Y1008F limits assumed): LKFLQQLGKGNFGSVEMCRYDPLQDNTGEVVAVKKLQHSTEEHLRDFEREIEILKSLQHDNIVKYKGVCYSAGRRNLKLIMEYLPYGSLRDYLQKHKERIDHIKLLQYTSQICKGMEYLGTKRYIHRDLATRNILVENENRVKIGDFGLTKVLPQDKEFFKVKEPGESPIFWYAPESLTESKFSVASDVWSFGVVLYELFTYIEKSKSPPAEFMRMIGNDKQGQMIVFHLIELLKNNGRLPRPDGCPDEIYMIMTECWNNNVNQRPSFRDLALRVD
Nature of the test: JAK2 JH1 Domain Binding Assay. The conditions noted are these: qPCR readout. Background: In qPCR the cycle at which signal appears reflects the starting amount.
In turn, `Cn1c(Nc2cc(C(C)(C)C)n([C@H]3COC[C@@H]3O)n2)nc2ncc(Oc3cnn4ccnc4c3)c(Cl)c21` (single isomer, unassigned) [Example I-23] returned a Kd of 10 to 50 nM.

Compound `Cn1c(Nc2cc(C(C)(C)C)n([C@@H]3COC[C@H]3O)n2)nc2ncc(Oc3cnn4ccnc4c3)c(Cl)c21` (single isomer, unassigned) [Example I-24] yielded a Kd of 50 to 1000 nM.

For the compound `CC(O)Cn1nc(Nc2nc3ncc(Oc4cnn5ccncc45)c(Cl)c3n2C)cc1C(C)(C)C` (single isomer, unassigned) [Example I-37], the Kd is below 10 nM.

Consider `C[C@@H](O)Cn1nc(Nc2nc3ncc(Oc4cnn5ccncc45)c(Cl)c3n2C)cc1C(C)(C)C` (single isomer, unassigned) [Example I-38], for which the Kd was below 10 nM.

For `Cn1c(Nc2cc(C(C)(C)C)n([C@@H]3CCOC34CC4)n2)nc2ncc(Oc3cnn4ccncc34)c(Cl)c21` (single isomer, unassigned) [Example I-41-a], the Kd was below 10 nM.

As to `Cn1c(Nc2cc(C(C)(C)C)n([C@@H]3CCOC34CC4)n2)nc2ncc(Oc3cnn4ccncc34)c(Cl)c21` (single isomer, unassigned) [Example I-41-b], the Kd was below 10 nM.

As for `Cn1c(Nc2cc(C(C)(C)C)n(C3COCC3O)n2)nc2ncc(Oc3cnn4ccncc34)c(Cl)c21` (single isomer, unassigned) [Example I-47], the Kd was below 10 nM.

The compound `Cn1c(Nc2cc(C(C)(C)C)n(C3COCC3O)n2)nc2ncc(Oc3cnn4ccncc34)c(Cl)c21` (single isomer, unassigned) [Example I-48] displayed a Kd below 10 nM.

The compound `Cn1c(Nc2nc([C@H]3CCOC3)c(C(C)(C)C)s2)nc2ncc(Oc3cnn4ccnc4c3)c(Cl)c21` (single isomer, unassigned) [Example I-56-a] returned a Kd of 10 to 50 nM.

The compound `Cn1c(Nc2nc([C@@H]3CCOC3)c(C(C)(C)C)s2)nc2ncc(Oc3cnn4ccnc4c3)c(Cl)c21` (single isomer, unassigned) [Example I-56-b] gave a Kd of 10 to 50 nM.

`Cn1c(Nc2cc(C(C)(C)C)n([C@H]3CCC[C@H]3O)n2)nc2ncc(Oc3cnn4ccncc34)c(Cl)c21` (single isomer, unassigned) [Example I-60-a]: the Kd is 10 to 50 nM.

The compound `Cn1c(Nc2cc(C(C)(C)C)n([C@@H]3CCC[C@@H]3O)n2)nc2ncc(Oc3cnn4ccncc34)c(Cl)c21` (single isomer, unassigned) [Example I-60-b] yielded a Kd below 10 nM.

`COc1c(Oc2cnn3ccncc23)cnc2nc(Nc3cc(C(C)(C)C)n([C@H]4CCC[C@H]4O)n3)n(C)c12` (single isomer, unassigned) [Example I-69-a] had a Kd of 50 to 1000 nM.

`COc1c(Oc2cnn3ccncc23)cnc2nc(Nc3cc(C(C)(C)C)n([C@@H]4CCC[C@@H]4O)n3)n(C)c12` (single isomer, unassigned) [Example I-69-b] returned a Kd of 10 to 50 nM.

`Cn1c(Nc2cc(C(C)(C)C)n([C@H]3CCC[C@H]3O)n2)nc2ncc(Oc3cnn4ccncc34)c(C(F)F)c21` (single isomer, unassigned) [Example I-71-a] registered a Kd of 50 to 1000 nM.

With `Cn1c(Nc2cc(C(C)(C)C)n([C@@H]3CCC[C@@H]3O)n2)nc2ncc(Oc3cnn4ccncc34)c(C(F)F)c21` (single isomer, unassigned) [Example I-71-b], the Kd was in the range of 10 to 50 nM.

On to `COc1c(Oc2cnn3ccncc23)cnc2nc(Nc3cc(C4CC4)cn([C@@H]4CCCOC4)c3=O)n(C)c12` (single isomer, unassigned) [Example I-72-a], for which the Kd was below 10 nM.

Compound `COc1c(Oc2cnn3ccncc23)cnc2nc(Nc3cc(C4CC4)cn([C@H]4CCCOC4)c3=O)n(C)c12` (single isomer, unassigned) [Example I-72-b] returned a Kd below 10 nM.

Turning to `Cn1c(Nc2cc(C3CC3)cn([C@H]3CCCOC3)c2=O)nc2ncc(Oc3cnn4ccncc34)c(Cl)c21` (single isomer, unassigned) [Example I-73-a], the Kd is below 10 nM.

Take `Cn1c(Nc2cc(C3CC3)cn([C@@H]3CCCOC3)c2=O)nc2ncc(Oc3cnn4ccncc34)c(Cl)c21` (single isomer, unassigned) [Example I-73-b]: the dissociation constant (Kd) was below 10 nM.

`Cn1c(Nc2cc(C(C)(C)C)n([C@H]3COC[C@@H]3O)n2)nc2ncc(Oc3cnc4cnc(C5CC5)n4c3)c(Cl)c21` (single isomer, unassigned) [Example I-76-a]: the Kd fell in the range of 10 to 50 nM.

Compound `Cn1c(Nc2cc(C(C)(C)C)n([C@@H]3COC[C@H]3O)n2)nc2ncc(Oc3cnc4cnc(C5CC5)n4c3)c(Cl)c21` (single isomer, unassigned) [Example I-76-b] gave a Kd of 10 to 50 nM.

Take `C[C@H](CO)Cn1cc(C2CC2)cc(Nc2nc3ncc(Oc4cnn5ccncc45)c(Cl)c3n2C)c1=O` (single isomer, unassigned) [Example I-81-a]: the dissociation constant Kd is below 10 nM.

Compound `C[C@@H](CO)Cn1cc(C2CC2)cc(Nc2nc3ncc(Oc4cnn5ccncc45)c(Cl)c3n2C)c1=O` (single isomer, unassigned) [Example I-81-b] had a Kd below 10 nM.

In turn, `Cn1c(Nc2cc(C(C)(C)C)n([C@H]3COC[C@@H]3O)n2)nc2ncc(Oc3cnc4cnc(C5CC5)n4c3)c(C(F)F)c21` (single isomer, unassigned) [Example I-93-a] gave a Kd of 10 to 50 nM.

`Cn1c(Nc2cc(C(C)(C)C)n([C@@H]3COC[C@H]3O)n2)nc2ncc(Oc3cnc4cnc(C5CC5)n4c3)c(C(F)F)c21` (single isomer, unassigned) [Example I-93-b] yielded a Kd of 50 to 1000 nM.

Regarding `Cn1c(Nc2cc(C3CC3)cn([C@H]3CC[C@@H]3O)c2=O)nc2ncc(Oc3cnn4ccncc34)c(Cl)c21` (single isomer, unassigned) [Example I-95-a], the Kd is below 10 nM.

Turning to `Cn1c(Nc2cc(C3CC3)cn([C@@H]3CC[C@H]3O)c2=O)nc2ncc(Oc3cnn4ccncc34)c(Cl)c21` (single isomer, unassigned) [Example I-95-b], the Kd was below 10 nM.

On to `Cn1c(Nc2cc(C3CC3)cn([C@@H]3CC[C@@H]3O)c2=O)nc2ncc(Oc3cnn4ccncc34)c(Cl)c21` (single isomer, unassigned) [Example I-98-a], for which the Kd was below 10 nM.

As for `Cn1c(Nc2cc(C3CC3)cn([C@H]3CC[C@H]3O)c2=O)nc2ncc(Oc3cnn4ccncc34)c(Cl)c21` (single isomer, unassigned) [Example I-98-b], the Kd is below 10 nM.

`Cn1c(Nc2cc(C3CC3)cn([C@H]3CC[C@@H]3O)c2=O)nc2ncc(Oc3cnn4ccccc34)c(Cl)c21` (single isomer, unassigned) [Example I-99-a] showed a Kd below 10 nM.

`Cn1c(Nc2cc(C3CC3)cn([C@@H]3CC[C@H]3O)c2=O)nc2ncc(Oc3cnn4ccccc34)c(Cl)c21` (single isomer, unassigned) [Example I-99-b] registered a Kd below 10 nM.

Turning to `COc1c(Oc2cnn3ccccc23)cnc2nc(Nc3cc(C4CC4)cn([C@H]4CCCOC4)c3=O)n(C)c12` (single isomer, unassigned) [Example I-101-a], the Kd was below 10 nM.

In turn, `COc1c(Oc2cnn3ccccc23)cnc2nc(Nc3cc(C4CC4)cn([C@@H]4CCCOC4)c3=O)n(C)c12` (single isomer, unassigned) [Example I-101-b] yielded a Kd below 10 nM.

In turn, `COc1c(Oc2cnn3ccncc23)cnc2nc(Nc3cc(C4CC4)cn([C@@H]4CC[C@@H]4O)c3=O)n(C)c12` (single isomer, unassigned) [Example I-104-a] had a Kd below 10 nM.

Broadly, the Kd is a measure of binding affinity in units of concentration. A higher Kd goes with weaker binding.
